Measurements published in patent publication US20130158112A1, “COMPOSITIONS AND METHODS FOR INHIBITING BETA AMYLOID SECRETION” (priority 2011, published 2013).
“Also recorded” adds a separate entry of the source. Like-named read-outs stand apart in the source and are kept apart here.

Experiments:
α-secretase = test: α-Secretase activity assay in lysates of treated H4βAPP695 wt cells; assay type: cell-based, human
Experimental: H4βAPP695 wt were treated with vehicle or 1 for 24 h, washed with ice cold PBS, and lysed in extraction buffer provided with the α-secretase assay kit (R&D Systems) for 10 min on ice and centrifuged at 10000 g for 1 min to remove nuclei. Protein content of the supernatant was determined by the BCA assay, and 50 μg of lysate protein were added to wells of a 96-well assay plate and the volume was adjusted to 100 μL using the lysis buffer. 100 μL of reaction buffer and 10 μL of the fluorogenic substrate were added, and the plates were incubated at 37° C. in the dark with gentle agitation for 2 h. Activity was detected in a fluorescence plate reader using an excitation of 355 nm and an emission of 510 nm after subtraction of fluorescence in the absence of cell lysate.
We measured the activity of α-secretase using a fluorogenic peptide substrate in lysates of H4βAPP695 wt cells. […] However, addition of compound 1 directly to the cell lysates, rather than to the live cells, had no effect on α-secretase activity (data not shown), implying an indirect cellular activation of this pathway rather than direct activation of the α-secretase protease by compound 1.

ADAM10 = test: Western blot of pro and active ADAM10 in H4βAPP695 wt cells; assay type: cell-based, human; conditions: 24 h
Experimental: Several members of the ADAM (a disintegrin and metalloproteinase) family, ADAM9, ADAM10, and ADAM17, have been reported to have α-secretase activity. […] Using antibodies specific for these three ADAM proteases, we assessed the levels of the pro and active forms in cells cultured with increasing concentrations of compound 1. […] At the 10 μM dose of compound 1, we observed a 31% increase in the ratio of active/pro ADAM9 (p<0.05), N=3 each control and compound 1) and a 42% increase in the ratio active/pro ADAM10 (p<0.05). Although the direct target for compound 1 has not been identified, it seems likely that its mechanism is via the increased ADAM 9 and ADAM10 processing into active α-secretase, which cleaves APP in a manner that precludes Aβ production.

[1] = test system: THLE-3 human hepatoma cells; test: Drug activity persistence after incubation with THLE-3 hepatoma cells; assay type: in vitro ADME; conditions: Homo sapiens, THLE3, 24 h
H4βAPP695 wt cells = test: Cytotoxicity by total cell protein content (BCA) of H4βAPP695 wt cells; conditions: 10 μM
Experimental: Cells were washed with cold phosphate buffered saline (PBS) and lysed on ice by vigorous mixing over 15 min with RIPA buffer containing 50 mM Tris-HCl (pH 8.0), 150 mM sodium chloride, 1% NP-40, 0.5% sodium deoxycholate, and 0.1% SDS, supplemented with 10% protease inhibitor cocktail and 2 mM PMSF. After centrifugation at 14000 g for 30 min to remove nuclei and other debris at 4° C., the protein content of the supernatants was measured using the BCA assay kit (Pierce).
The initial screen was performed in 96-well plates with drugs distributed by the hanging drop method yielding estimated drug levels of 10-25 μM. Total Aβ levels in the 24 h conditioned media were measured by a sandwich ELISA assay, and cytotoxicity was assessed by methylene blue staining of the cells in the wells, as previously described.

O=C(NCCSCc1cccc(Cl)c1)c1c(Cl)cccc1Cl [Compound 1]
α-secretase activity after treatment of cells (α-secretase): induced | increase in α-secretase activity (α-secretase; cells pretreated with 10 μM for 24 h): 20% | increase in the ratio active/pro ADAM10 (ADAM10; 10 μM): 42% | active ADAM10 / processing of ADAM10 (ADAM10; increasing doses): dose dependent increase; also recorded: promotes cellular processing | inhibition at 10 µM ([1]; 10 μM on H4 cells, without preincubation with hepatoma cells, read-out: hepatoma incubation No total Aβ (% decrease)): 69.4% | inhibition at 10 µM ([1]; 20 μM preincubated 24 h with THLE-3 hepatoma cells, diluted to 10 μM on H4 cells, read-out: hepatoma incubation Yes total Aβ (% decrease)): 34.6% | cytotoxicity, measured by total cell protein content (H4βAPP695 wt cells): did not have significant cytotoxicity
